In ChEMBL document CHEMBL1909046, “DrugMatrix in vitro pharmacology data”:

How the values were obtained:
[1] = target: Platelet-activating factor receptor (Homo sapiens, UniProt P25105); type: tissue-based; note: in other assays of this panel Not Active means under 50% inhibition at 10 µM
[2] = target: Tyrosine-protein kinase Fyn (Homo sapiens, UniProt P06241); experiment: biochemical; type: cell-based, Insect cells;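 note: enzymatic inhibition of Fyn kinase activity measured with Poly(Glu:Tyr) as the phosphorylation substrate; in other assays of this panel Not Active means under 50% inhibition at 10 µM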
[3] = DRUGMATRIX: Tumor Necrosis Factor (TNF), Non-Selective radioligand binding (ligand: [125I] TNF-alpha); type: cell membranes, Membrane; settings: u-937; Not Active = under 50% inhibition at 10 µM
[4] = DRUGMATRIX: Phosphodiesterase PDE3 enzyme inhibition (substrate: [3H]cAMP + cAMP); type: tissue-based, Homo sapiens; settings: platelet; Not Active = under 50% inhibition at 10 µM
[5] = DRUGMATRIX: Sigma2 radioligand binding (ligand: [3H] Ifenprodil); type: cell membranes, Rattus norvegicus, Wistar, Brain, Membrane; settings: Not Active = under 50% inhibition at 10 µM
[6] = target: T1, Alpha-1A adrenergic receptor (Rattus norvegicus, UniProt P43140); experiment: DRUGMATRIX: Alpha-1A adrenergic receptor radioligand binding (ligand: prazosin); type: cell membranes, Wistar, Submaxillary gland, Membrane; settings: Not Active = under 50% inhibition at 10 µM; for Ki: read-out: Ki
T1 sequence (P43140 whole entry): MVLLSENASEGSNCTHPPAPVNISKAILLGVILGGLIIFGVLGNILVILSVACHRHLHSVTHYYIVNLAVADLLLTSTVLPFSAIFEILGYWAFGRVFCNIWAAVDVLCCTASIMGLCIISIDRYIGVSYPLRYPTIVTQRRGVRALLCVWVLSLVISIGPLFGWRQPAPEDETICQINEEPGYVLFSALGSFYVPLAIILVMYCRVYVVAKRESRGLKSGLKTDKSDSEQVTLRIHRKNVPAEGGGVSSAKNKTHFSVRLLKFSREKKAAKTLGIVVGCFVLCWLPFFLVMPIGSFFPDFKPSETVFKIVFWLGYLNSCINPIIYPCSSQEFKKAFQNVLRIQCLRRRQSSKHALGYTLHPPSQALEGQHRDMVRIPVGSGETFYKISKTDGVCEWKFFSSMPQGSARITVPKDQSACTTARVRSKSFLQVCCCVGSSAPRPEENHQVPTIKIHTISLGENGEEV

Sequence of Tyrosine-protein kinase Fyn (P06241 whole entry): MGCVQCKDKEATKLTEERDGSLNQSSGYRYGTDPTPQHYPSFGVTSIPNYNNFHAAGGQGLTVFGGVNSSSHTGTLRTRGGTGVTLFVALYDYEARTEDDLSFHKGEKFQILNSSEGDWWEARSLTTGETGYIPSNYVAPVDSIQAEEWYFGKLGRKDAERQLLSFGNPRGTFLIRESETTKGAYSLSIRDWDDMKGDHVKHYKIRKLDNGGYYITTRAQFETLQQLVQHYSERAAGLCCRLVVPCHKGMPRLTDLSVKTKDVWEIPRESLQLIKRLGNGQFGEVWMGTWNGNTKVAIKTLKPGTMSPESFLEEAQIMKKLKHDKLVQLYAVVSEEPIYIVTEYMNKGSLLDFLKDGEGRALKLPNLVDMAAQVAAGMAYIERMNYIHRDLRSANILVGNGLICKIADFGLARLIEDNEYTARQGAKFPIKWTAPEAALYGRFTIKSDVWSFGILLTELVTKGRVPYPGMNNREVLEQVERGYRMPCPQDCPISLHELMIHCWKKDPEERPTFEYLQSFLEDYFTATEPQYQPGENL
Sequence of Platelet-activating factor receptor (P25105 whole entry): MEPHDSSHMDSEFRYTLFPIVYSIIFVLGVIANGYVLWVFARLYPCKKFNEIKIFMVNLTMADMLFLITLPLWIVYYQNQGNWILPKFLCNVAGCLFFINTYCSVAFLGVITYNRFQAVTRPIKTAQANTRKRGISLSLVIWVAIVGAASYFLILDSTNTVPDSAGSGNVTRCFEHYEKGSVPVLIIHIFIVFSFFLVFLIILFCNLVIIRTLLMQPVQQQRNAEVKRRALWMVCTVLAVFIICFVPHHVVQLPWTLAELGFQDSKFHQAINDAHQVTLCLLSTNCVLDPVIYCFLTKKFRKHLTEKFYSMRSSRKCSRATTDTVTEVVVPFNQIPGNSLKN

| SMILES | IC50 [1] | IC50 ([2]; insect cells) | IC50 [3] | Ki [3] | IC50 [4] | Ki [4] | IC50 [5] | Ki [5] | IC50 [6] | IC50 ([2]; read-out: IC50) | IC50 ([5]; read-out: IC50) | Ki ([5]; read-out: Ki) | IC50 ([6]; read-out: IC50) | Ki [6] |
| --- | --- | --- | --- | --- | --- | --- | --- | --- | --- | --- | --- | --- | --- | --- |
| N[C@@H](Cc1ccc(N(CCCl)CCCl)cc1)C(=O)O | Not Active | Not Active | Not Active | Not Active | Not Active | Not Active | Not Active | Not Active | Not Active | – | – | – | – | – |
| CC(C)N1CCN(c2ccc(OCC3COC(Cn4cncn4)(c4ccc(Cl)cc4Cl)O3)cc2)CC1 (stereo unspecified) [TERCONAZOLE] | Not Active | – | – | – | Not Active | Not Active | – | – | – | 10900 nM | 317 nM | 195 nM | 13300 nM | 5370 nM |
| Cc1nc2n(c(=O)c1CCN1CCC(c3noc4cc(F)ccc34)CC1)CCCC2 [RISPERIDONE] | Not Active | Not Active | – | – | – | – | – | – | – | – | – | – | – | – |
| N[C@@H]1[C@H]2CN(c3nc4c(cc3F)c(=O)c(C(=O)O)cn4-c3ccc(F)cc3F)C[C@@H]12 [TROVAFLOXACIN] | Not Active | Not Active | Not Active | Not Active | Not Active | Not Active | Not Active | Not Active | Not Active | – | – | – | – | – |
| O=c1ncn2nc(Sc3ccc(F)cc3F)ccc2c1-c1c(Cl)cccc1Cl [NEFLAMAPIMOD] | Not Active | Not Active | Not Active | Not Active | Not Active | Not Active | Not Active | Not Active | Not Active | – | – | – | – | – |
| CCCCc1oc2ccccc2c1C(=O)c1cc(I)c(OCCN(CC)CC)c(I)c1 [AMIODARONE] | Not Active | – | – | – | – | – | – | – | Not Active | 817 nM | – | – | – | – |
| CC[C@]1(O)C[C@H]2CN(CCc3c([nH]c4ccccc34)[C@@](C(=O)OC)(c3cc4c(cc3OC)N(C=O)[C@H]3[C@@](O)(C(=O)OC)[C@H](OC(C)=O)[C@]5(CC)C=CCN6CC[C@]43[C@@H]65)C2)C1 [VINCRISTINE] | Not Active | Not Active | Not Active | Not Active | Not Active | Not Active | Not Active | Not Active | Not Active | – | – | – | – | – |
| CO[C@H]1/C=C/O[C@@]2(C)Oc3c(C)c(O)c4c(O)c(c(/C=N/N5CCN(C)CC5)c(O)c4c3C2=O)NC(=O)/C(C)=C\C=C\[C@H](C)[C@H](O)[C@@H](C)[C@@H](O)[C@@H](C)[C@H](OC(C)=O)[C@@H]1C [RIFAMPIN] | Not Active | Not Active | Not Active | Not Active | Not Active | Not Active | Not Active | Not Active | Not Active | – | – | – | – | – |
| Cc1noc(NS(=O)(=O)c2ccc(N)cc2)c1C [SULFISOXAZOLE] | Not Active | Not Active | Not Active | Not Active | Not Active | Not Active | Not Active | Not Active | Not Active | – | – | – | – | – |
| NS(=O)(=O)c1cc2c(cc1Cl)NC(C(Cl)Cl)NS2(=O)=O (stereo unspecified) [TRICHLORMETHIAZIDE] | Not Active | Not Active | Not Active | Not Active | Not Active | Not Active | Not Active | Not Active | Not Active | – | – | – | – | – |
| COc1nc(C)nc(Cl)c1NC1=NCCN1 [MOXONIDINE] | Not Active | Not Active | Not Active | Not Active | Not Active | Not Active | Not Active | Not Active | Not Active | – | – | – | – | – |
| Nc1nc2ccc(OC(F)(F)F)cc2s1 [RILUZOLE] | Not Active | Not Active | Not Active | Not Active | Not Active | Not Active | Not Active | Not Active | Not Active | – | – | – | – | – |
| N[C@@H](Cc1cc(I)c(Oc2ccc(O)c(I)c2)c(I)c1)C(=O)O [LIOTHYRONINE] | Not Active | Not Active | – | – | – | – | – | – | Not Active | – | – | – | – | – |
| C[C@@H]1CN(c2c(F)c(N)c3c(=O)c(C(=O)O)cn(C4CC4)c3c2F)C[C@H](C)N1 [SPARFLOXACIN] | Not Active | Not Active | Not Active | Not Active | Not Active | Not Active | Not Active | Not Active | Not Active | – | – | – | – | – |
| CC1(C)O[C@@H]2C[C@H]3[C@@H]4CCC5=CC(=O)C=C[C@]5(C)[C@@]4(F)[C@@H](O)C[C@]3(C)[C@]2(C(=O)CO)O1 [TRIAMCINOLONE ACETONIDE] | Not Active | Not Active | Not Active | Not Active | Not Active | Not Active | Not Active | Not Active | Not Active | – | – | – | – | – |
| CSc1ccc(/C=C2/C(C)=C(CC(=O)O)c3cc(F)ccc32)cc1 [SULINDAC SULFIDE] | Not Active | Not Active | Not Active | Not Active | Not Active | Not Active | Not Active | Not Active | Not Active | – | – | – | – | – |
| Nc1c2c(nc3ccccc13)CCCC2 [TACRINE] | Not Active | Not Active | Not Active | Not Active | Not Active | Not Active | Not Active | Not Active | – | – | – | – | 2750 nM | 1110 nM |
| CN1CCN(CCCN2c3ccccc3Sc3ccc(Cl)cc32)CC1 [PROCHLORPERAZINE] | Not Active | – | – | – | – | – | – | – | – | 5680 nM | – | – | 32 nM | 13 nM |
| N[C@@H](Cc1ccc(O)c(O)c1)C(=O)O [LEVODOPA] | Not Active | – | Not Active | Not Active | Not Active | Not Active | Not Active | Not Active | Not Active | 2150 nM | – | – | – | – |
| O=NN(CCCl)C(=O)NC1CCCCC1 [LOMUSTINE] | Not Active | Not Active | Not Active | Not Active | Not Active | Not Active | Not Active | Not Active | Not Active | – | – | – | – | – |
| Cc1c(C)c2c(c(C)c1O)CCC(C)(COc1ccc(CC3SC(=O)NC3=O)cc1)O2 (stereo unspecified) [TROGLITAZONE] | Not Active | Not Active | Not Active | Not Active | Not Active | Not Active | Not Active | Not Active | Not Active | – | – | – | – | – |
| CCOC(=O)N1CCC(=C2c3ccc(Cl)cc3CCc3cccnc32)CC1 [LORATADINE] | Not Active | Not Active | Not Active | Not Active | Not Active | Not Active | Not Active | Not Active | Not Active | – | – | – | – | – |
| Cc1cccc(N(C)C(=S)Oc2ccc3ccccc3c2)c1 [TOLNAFTATE] | Not Active | Not Active | Not Active | Not Active | Not Active | Not Active | Not Active | Not Active | Not Active | – | – | – | – | – |
| NC[C@H]1CC[C@H](C(=O)O)CC1 [TRANEXAMIC ACID] | Not Active | Not Active | Not Active | Not Active | Not Active | Not Active | Not Active | Not Active | Not Active | – | – | – | – | – |
| CC[C@@H](CO)NC(=O)[C@@H]1C=C2c3cccc4[nH]cc(c34)C[C@H]2N(C)C1 [METHYLERGONOVINE] | Not Active | Not Active | Not Active | Not Active | Not Active | Not Active | Not Active | Not Active | Not Active | – | – | – | – | – |
| c1ccc([C@H]2CN3CCSC3=N2)cc1 [LEVAMISOLE] | Not Active | Not Active | Not Active | Not Active | Not Active | Not Active | – | – | Not Active | – | 4390 nM | 2700 nM | – | – |
| OCCN(CCO)c1nc(N2CCCCC2)c2nc(N(CCO)CCO)nc(N3CCCCC3)c2n1 [DIPYRIDAMOLE] | Not Active | Not Active | Not Active | Not Active | Not Active | Not Active | Not Active | Not Active | Not Active | – | – | – | – | – |
| CC(C)(C)NC(=O)[C@@H]1C[C@@H]2CCCC[C@@H]2CN1C[C@@H](O)[C@H](Cc1ccccc1)NC(=O)[C@H](CC(N)=O)NC(=O)c1ccc2ccccc2n1 | Not Active | Not Active | Not Active | Not Active | Not Active | Not Active | Not Active | Not Active | Not Active | – | – | – | – | – |
| Nc1nc2nc[nH]c2c(=S)[nH]1 [THIOGUANINE] | Not Active | Not Active | Not Active | Not Active | Not Active | Not Active | Not Active | Not Active | Not Active | – | – | – | – | – |
| CC/C(=C(\c1ccccc1)c1ccc(OCCN(C)C)cc1)c1ccccc1 [TAMOXIFEN] | Not Active | – | – | – | – | – | – | – | – | 1200 nM | – | – | 22100 nM | 8920 nM |
